Data as given in ChEMBL document CHEMBL4828772, “Imidazo[1,2-b]pyridazines as IL-17A Inhibitors for Treating Psoriasis, Rheumatoid Arthritis, and Multiple Sclerosis” (ACS Med Chem Lett, 2021).

Experiment: Inhibition of C-terminal Avi/His-tagged IL-17A (1 to 155 residues) (unknown origin) expressed in baculovirus infected insect cells binding with FLAG-tagged/Thrombin cleavage site fused IL-17RA (1 to317 residues) N206D/N256D mutant (unknown origin) expressed in baculovirus infected insect cells measured after 2 hrs by AlphaLISA method
Parameters: species or system Homo sapiens

SMILES | IC50
COC[C@H](c1cnn2cc([C@@H](NC(=O)c3nonc3C(F)F)C3CCC(F)(F)CC3)nc2c1)N1C[C@@H](C(F)(F)F)NC1=O | < 9.45 nM
COC[C@H](c1cnn2cc([C@@H](NC(=O)c3nonc3C(F)(F)F)C3CCC(F)(F)CC3)nc2c1)N1C[C@@H](C(F)(F)F)NC1=O | < 9.45 nM
CC(C)c1nonc1C(=O)N[C@H](c1cn2ncc(CN3C[C@@H](C(F)(F)F)NC3=O)cc2n1)C1CCC(F)(F)CC1 | < 9.45 nM
O=C(N[C@H](c1cn2ncc(CN3C[C@@H](C(F)(F)F)NC3=O)cc2n1)C1CCC(F)(F)CC1)c1nonc1C(F)(F)F | < 9.45 nM
COC[C@H](c1cnn2cc([C@@H](NC(=O)c3conc3C3CC3)C3CCC(F)(F)CC3)nc2c1)N1C[C@@H](C(F)(F)F)NC1=O | < 9.45 nM
O=C(N[C@H](c1cn2ncc(CN3C[C@@H](C(F)(F)F)NC3=O)cc2n1)C1CCC(F)(F)CC1)c1nonc1C1CC1 | < 9.45 nM
